Here are results for six compounds from the supplement of paper PMC11061612.

Holding throughout (experiment): combination Emax (second highest fraction inhibited in the dose matrix, 72 h); higher = more inhibition; extreme values may be limits of the assay
For test [1], the system named is NCI-H596 (Other Solid Carcinomas). The procedure, abridged: (§1)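 Cell lines in DMEM/F12 or RPMI with 10% FBS were plated in 1536-well plates, held 24 hours at 37°C, 5% CO2, then given two-drug dose matrices for 72 hours (DMSO typically 0.2%). Viability was read by CellTiter-Glo 2.0 luminescence and scaled as inhibition from 0 (vehicle wells) to 1 (blank wells). Combination Emax is the second-highest inhibition in the matrix; Bliss excess is observed combination effect minus expected EA + EB − EA·EB, EA and EB being single-agent effects.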

The test system of test [2] is SKG-IIIa (Cervical Carcinoma). An outline of the steps:
as §1

The test system of test [3] is HT-1080 (Other Solid Carcinomas). An outline of the steps:
as §1

Test [4] has as its system NCI-H1341 (Small Cell Lung Carcinoma). An outline of the steps: as §1
For test [5], the system named is T47D (Breast Carcinoma). An outline of the steps:
as §1

For test [6], the system named is RCC-JW (Kidney Carcinoma). An outline of the steps:
as §1

Test [7] relates to MOLP-8 (Plasma Cell Myeloma). An outline of the steps:
as §1

Test [8] concerns MOLT-13 (T-Lymphoblastic Leukemia). The procedure, abridged: as §1
Test [9] concerns CL-11 (Colorectal Carcinoma). An outline of the steps:
as §1

The test system of test [10] is NCI-H1876 (Small Cell Lung Carcinoma). The procedure, abridged:
as §1

For test [11], the system named is AM-38 (Glioblastoma). An outline of the steps: as §1
Test [12] concerns MDA-MB-415 (Breast Carcinoma). An outline of the steps: as §1
Test [13] deals with UACC-257 (Melanoma). The procedure, abridged:
as §1

Test [14] has as its system MM1S (Plasma Cell Myeloma). An outline of the steps:
as §1

In test [15] the test system is NCI-H3118 (Head and Neck Carcinoma). The procedure, abridged: as §1
Test [16] has as its system LS-1034 (Colorectal Carcinoma). An outline of the steps: as §1
Test [17] concerns KALS-1 (Glioblastoma). An outline of the steps: as §1
The subject of test [18] is SNU-C2B (Colorectal Carcinoma). An outline of the steps: as §1
Test [19] relates to SNU-407 (Colorectal Carcinoma). The procedure, abridged: as §1
Test [20] has as its system IST-MEL1 (Melanoma). An outline of the steps: as §1

With `CC1(C)CCC(CN2CCN(c3ccc(C(=O)NS(=O)(=O)c4ccc(NCC5CCOCC5)c([N+](=O)[O-])c4)c(Oc4cnc5[nH]ccc5c4)c3)CC2)=C(c2ccc(Cl)cc2)C1` [Venetoclax] + CN(C)CCCOc1ccc(-c2ccc3ncc4c(c3c2)n(C2CCOCC2)c(=O)n4C)cn1 [AZD0156] (first compound max 1 µM, 7x7, partner max 1 µM), the “combination Emax” value in test [1] was found to be 0.232; in test [2], 0.219; in [3] it was 0.105; in [4], 0.361; in test [5] it was 0.344; in test [6], 0.184. Further, the “combination Emax” value in test [7] came out at 0.169; in test [8], 0.718; in test [9] it was 0.11; in test [10] it was 0.282; in test [11], 0.209; in [12], 0.262. Moreover, the “combination Emax” value in test [13] worked out at 0.177; in test [14] it was 0.221; in test [15] it was 0.181; in test [16], 0.164; in test [17], 0.646; in test [18], 0.156. The “combination Emax” value in test [19] amounted to 0.234; in test [20] it was 0.42.
Take `CC1(C)CCC(CN2CCN(c3ccc(C(=O)NS(=O)(=O)c4ccc(NCC5CCOCC5)c([N+](=O)[O-])c4)c(Oc4cnc5[nH]ccc5c4)c3)CC2)=C(c2ccc(Cl)cc2)C1` [Venetoclax] + COc1cc(Nc2ncc3c(n2)-c2ccc(Cl)cc2C(c2c(F)cccc2OC)=NC3)ccc1C(=O)O [Alisertib] (first compound max 1 µM, 7x7, partner max 10 µM): the “combination Emax” value in [1] was determined as 0.381; in test [2] it was 0.286; in test [3], 0.299; in test [4], 0.968; in test [5] it was 0.326; in test [6] it was 0.286. Moreover, the “combination Emax” value worked out at 0.633 in test [7]; 0.896 in [8]; 0.673 in [9]; 0.866 in test [10]; 0.41 in [11]; 0.379 in test [12]. Moreover, the “combination Emax” value in test [13] stood at 0.191; in [14], 0.423; in test [15] it was 0.312; in [16], 0.227; in test [17] it was 0.647; in test [18] it was 0.291. In addition, the “combination Emax” value in test [19] was found to be 0.631; in test [20], 0.574.
Turning to `CC1(C)CCC(CN2CCN(c3ccc(C(=O)NS(=O)(=O)c4ccc(NCC5CCOCC5)c([N+](=O)[O-])c4)c(Oc4cnc5[nH]ccc5c4)c3)CC2)=C(c2ccc(Cl)cc2)C1` [Venetoclax] + C[C@@H]1COCCN1C2=NC(=NC(=C2)C3(CC3)[S@](=N)(=O)C)C4=C5C=CNC5=NC=C4 [AZD6738] (first compound max 1 µM, 7x7, partner max 10 µM), the “combination Emax” value in test [1] was determined as 0.371; in [2] it was 0.368; in test [3], 0.425; in test [4], 0.757; in [5] it was 0.35; in [6], 0.469. The “combination Emax” value stood at 0.75 in test [7]; 1 in test [8]; 0.681 in test [9]; 0.942 in test [10]; 0.732 in [11]; 0.509 in test [12]. Also, the “combination Emax” value is 0.169 in test [13]; 0.527 in [14]; 0.568 in test [15]; 0.624 in test [16]; 0.83 in test [17]; 0.592 in test [18]. Further, the “combination Emax” value came out at 0.77 in test [19] and 0.823 in test [20].
Take `CC1(C)CCC(CN2CCN(c3ccc(C(=O)NS(=O)(=O)c4ccc(NCC5CCOCC5)c([N+](=O)[O-])c4)c(Oc4cnc5[nH]ccc5c4)c3)CC2)=C(c2ccc(Cl)cc2)C1` [Venetoclax] + C[C@@H](Nc1cc(F)cc(F)c1)c1cc(C(=O)N(C)C)cc2c(=O)cc(N3CCOCC3)oc12 [AZD8186] (first compound max 1 µM, 7x7, partner max 3 µM): the “combination Emax” value came to 0.241 in test [1]; 0.168 in test [2]; 0.164 in [3]; 0.583 in test [4]; 0.272 in test [5]; 0.293 in test [6]. Moreover, the “combination Emax” value in test [7] amounted to 0.455; in test [8], 0.431; in test [9] it was 0.083; in test [10] it was 0.182; in [11] it was 0.157; in test [12] it was 0.663. Further, the “combination Emax” value in test [13] stood at 0.121; in [14] it was 0.288; in test [15] it was 0.0963; in test [16], 0.0835; in test [17] it was 0.741; in test [18], 0.125. Besides, the “combination Emax” value in test [19] stood at 0.142; in test [20] it was 0.336.
As to `CC1(C)CCC(CN2CCN(c3ccc(C(=O)NS(=O)(=O)c4ccc(NCC5CCOCC5)c([N+](=O)[O-])c4)c(Oc4cnc5[nH]ccc5c4)c3)CC2)=C(c2ccc(Cl)cc2)C1` [Venetoclax] + Cc1cc2ncnn2cc1Nc1ncc2c(n1)n(C1CCOCC1)c(=O)n2C [AZD7648] (first compound max 1 µM, 7x7, partner max 10 µM), the “combination Emax” value in [1] came to 0.226; in [2], 0.24; in [3], 0.109; in [4], 0.444; in test [5], 0.32; in test [6], 0.151. In addition, the “combination Emax” value came out at 0.273 in test [7]; 0.785 in test [8]; 0.157 in test [9]; 0.274 in test [10]; 0.318 in test [11]; 0.342 in [12]. Also, the “combination Emax” value in [13] stood at 0.159; in test [14], 0.229; in test [15], 0.137; in [16], 0.0935; in test [17], 0.693; in test [18], 0.26. Besides, the figures for the “combination Emax” value in test [19] and in [20] were 0.373 and 0.41, respectively.
As for `CC1(C)CCC(CN2CCN(c3ccc(C(=O)NS(=O)(=O)c4ccc(NCC5CCOCC5)c([N+](=O)[O-])c4)c(Oc4cnc5[nH]ccc5c4)c3)CC2)=C(c2ccc(Cl)cc2)C1` [Venetoclax] + Cn1cnc2c(F)c(Nc3ccc(Br)cc3Cl)c(C(=O)NOCCO)cc21 [Selumetinib] (first compound max 1 µM, 7x7, partner max 3 µM), the “combination Emax” value came out at 0.222 in test [1]; 0.127 in test [2]; 0.316 in test [3]; 0.432 in test [4]; 0.0758 in test [5]; 0.144 in [6]. The “combination Emax” value was determined as 0.186 in test [7]; 0.804 in test [8]; 0.528 in test [9]; 0.205 in test [10]; 0.498 in test [11]; 0.176 in test [12]. Moreover, the “combination Emax” value amounted to 0.621 in test [13]; 0.306 in [14]; 0.294 in [15]; 0.537 in [16]; 0.578 in [17]; 0.27 in test [18]. Further, the “combination Emax” value in test [19] is 0.504; in test [20], 0.415.
